Measured values taken from patent US20240424146A1, “DRUG SCREENING METHOD AND MODEL FOR MONITORING PLATINUM-RESISTANT OVARIAN CANCER TUMOR GROWTH AND METASTASES” (THE BOARD OF REGENTS OF THE UNIVERSITY OF OKLAHOMA, priority 2023, published 2024).

Test system: OVCAR-8 CPR Luc cells
Assay: cisplatin dose response, cell viability by MTS assay
Type: cell-based, human
Settings: non-linear regression, FIG. 1
Procedure: Cells were treated with increasing doses of cisplatin and cell viability was measured using the MTS assay. IC50 values were calculated using non-linear regression analysis in GraphPad Prism software.
Next, we confirmed that these cells retained their inherent response to cisplatin. […] To determine if luciferase activity could be visualized in vitro we plated the OVCAR-8 CPR Luc cells in 2-dimensional (2D) adherent and suspended three-dimensional (3D) spheroid conditions.

With N.N.[Cl][Pt][Cl] [cisplatin] the “IC50 of OVCAR-8 CPR Luc cells to cisplatin relative to cisplatin-sensitive cells (OVCAR-8 Luc)” value was “twice”.
